The text below walks through data of patent publication US20060281763A1, “Carboxamide inhibitors of TGFbeta” (priority 2005, published 2006).

Like-named read-outs stand apart in the source and are kept apart here.

Broadly, the IC50 is the concentration needed to halve the response being measured.

The test has as its target T1, TGFβ R1 (Homo sapiens, UniProt P36897).
T1 sequence (P36897 34-503): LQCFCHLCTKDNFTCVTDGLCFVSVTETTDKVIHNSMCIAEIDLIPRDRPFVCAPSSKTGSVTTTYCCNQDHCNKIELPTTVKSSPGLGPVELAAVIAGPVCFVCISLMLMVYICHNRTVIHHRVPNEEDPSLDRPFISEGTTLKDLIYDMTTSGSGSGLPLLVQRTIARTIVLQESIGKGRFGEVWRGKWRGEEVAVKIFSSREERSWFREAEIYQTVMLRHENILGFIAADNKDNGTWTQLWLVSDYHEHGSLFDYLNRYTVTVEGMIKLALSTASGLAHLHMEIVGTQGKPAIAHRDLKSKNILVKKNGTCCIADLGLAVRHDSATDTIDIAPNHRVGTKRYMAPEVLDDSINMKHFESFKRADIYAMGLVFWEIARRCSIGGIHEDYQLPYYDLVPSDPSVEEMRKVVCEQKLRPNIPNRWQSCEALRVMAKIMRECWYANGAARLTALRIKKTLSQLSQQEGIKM
Nature of the test: TGFβ R1 autophosphorylation protocol (33P-ATP, phosphocellulose filter plate). Format: biochemical. The conditions noted are these: 10 uM ATP, read-out: IC50 for Kinase Inhibition. How it is done:
The compounds of the invention were tested for their ability to inhibit TGFβ by a TGFβ R^1 autophosphorylation protocol. This was conducted as follows: Compound dilutions and reagents were prepared fresh daily. Compounds were diluted from DMSO stock solutions to 2 times the desired assay concentration, keeping final DMSO concentration in the assay less than or equal to 1%. TGFβ R1 was diluted to 4 times the desired assay concentration in buffer+DTT. ATP was diluted into 4× reaction buffer, and gamma-^33P-ATP was added at 60 uCi/mL.
The assay was performed by adding 10 ul of the enzyme to 20 ul of the compound solution. The reaction was initiated by the addition of 10 ul of ATP mix. Final assay conditions included 10 uM ATP, 170 nM TGFβ R1, and […] in 20 mM MOPS, pH7. The reactions were incubated at room temperature for 20 minutes. The reactions were stopped by transferring 23 ul of reaction mixture onto a phosphocellulose 96-well filter plate, which had been pre-wetted with 15 ul of 0.25M H3PO4 per well. After 5 minutes, the wells were washed 4× with 75 mM H3PO4 and once with 95% ethanol. The plate was dried, scintillation cocktail was added to each well, and the wells were counted in a Packard TopCount microplate scintillation counter.

The mark [1] stands for this setting: 170 nM TGFβ R1, 20 minutes at room temperature.
Where [2] appears, read: 170 nM TGFβ R1, room temperature 20 minutes.

Consider `CCOC(=O)CNC(=O)c1cnccc1Nc1nc(-c2cc(Cl)ccc2F)ncc1OC` [Compound 1, ({4-[2-(5-Chloro-2-fluoro-phenyl)-5-methoxy-pyrimidin-4-ylamino]pyridine-3-carbonyl}-amino)-acetic acid ethyl ester], for which the IC50 under setting [1] amounted to 40 nM.

As to `CC(=O)CNC(=O)c1cnccc1Nc1nc(-c2cc(Cl)ccc2F)ncc1C(C)C` [Compound 169, 4-[2-(5-Chloro-2-fluoro-phenyl)-5-isopropyl-pyrimidin-4-ylamino]-N-(2-oxo-propyl)-nicatinamide], under setting [2], the IC50 amounted to 3 nM.

As for `COc1cnc(-c2cc(Cl)ccc2F)nc1Nc1ccncc1C(=O)NCCNC(=O)COC1O[C@H](CO)[C@@H](O)[C@H](O)[C@H]1O` (some centres unmarked) [Compound 145, 4-[2-(5-Chloro-2-fluoro-phenyl)-5-methoxy-pyrimidin-4-ylamino]-N-{2-[2-(3,4,5-trihydroxy-6-hydroxymethyl-tetrahydro-pyran-2-yloxy)-acetylamino]-ethyl)-nicotinamide], the half-maximal inhibitory concentration (IC50) under setting [1] is 53 nM.

Turning to `CC(C)c1cnc(-c2cc(Cl)ccc2F)nc1Nc1ccncc1C(=O)NC1CNC1` [Compound 111, N-Azetidin-3-yl-4-[2-(5-chloro-2-fluoro-phenyl)-5-isopropyl-pyrimidin-4-ylamino]-nicotinamide], the IC50 under setting [1] is 20 nM.

For `COC(=O)[C@H]1C[C@@H](NC(=O)c2cnccc2Nc2nc(-c3cc(Cl)ccc3F)ncc2OC)CN1C(=O)OC(C)(C)C` [Compound 88, 4-({4-[2-(5-Chloro-2-fluoro-phenyl)-5-methoxy-pyrimidin-4-ylamino]-pyridine-3-carbonyl}-amino)-pyrrolidine-1,2-dicarboxylic acid 1-tert-butyl ester 2-methyl ester], under setting [1], the IC50 worked out at 14100 nM.

`CNC(=O)[C@H]1CCCN1CCCNC(=O)c1cnccc1Nc1nc(-c2cc(Cl)ccc2F)ncc1C(C)C` [Compound 182, 4-[2-(5-Chloro-2-fluoro-phenyl)-5-isopropyl-pyrimidin-4-ylamino]-N-[3-(2-methylcarbamoyl-pyrrolidin-1-yl)-propyl]-nicotinamide]: the half-inhibitory concentration (IC50) under setting [2] came out at 11 nM.

Turning to `COc1cnc(-c2cc(Cl)ccc2F)nc1Nc1ccncc1C(=O)NC1CNC1` [Compound 87, N-Azetidin-3-yl-4-[2-(5-chloro-2-fluoro-phenyl)-5-methoxy-pyrimidin-4-ylamino]-nicotinamide], under setting [1], the IC50 was 50 nM.

In the case of `COc1cnc(-c2cc(Cl)ccc2F)nc1Nc1ccncc1C(=O)NCCNCC(C)(C)O` [Compound 112, 4-[2-(5-Chloro-2-fluoro-phenyl)-5-methoxy-pyrimidin-4-ylamino]-N-[2-(2-hydroxy-2-methyl-propylamino)-ethyl]-nicotinamide], the IC50 under setting [1] was determined as 90 nM.

As for `COc1cnc(-c2cc(Cl)ccc2F)nc1Nc1ccncc1C(=O)NCCCN1CCCCC1C` (centres unmarked) [Compound 12, 4-[2-(5-Chloro-2-fluoro-phenyl)-5-methoxy-pyrimidin-4-ylamino]-N-[3-(2-methyl-piperidin-1-yl)-propyl]-nicotinamide], the IC50 under setting [1] was 60 nM.

On to `COc1cnc(-c2cc(Cl)ccc2F)nc1Nc1ccncc1C(=O)NCCCN/C(=N/C#N)N1CCOCC1` [Compound 43], for which, under setting [1], the IC50 is 60 nM.

On to `COc1cnc(-c2cc(Cl)ccc2F)nc1Nc1ccncc1C(=O)NCC1(O)CCCCC1` [Compound 61, 4-[2-(5-Chloro-2-fluoro-phenyl)-5-methoxy-pyrimidin-4-ylamino]-N-(1-hydroxy-cyclohexylmethyl)-nicotinamide], for which the half-inhibitory concentration (IC50) under setting [1] is 11800 nM.

Turning to `CCNC(=O)NCCCNC(=O)c1cnccc1Nc1nc(-c2cc(Cl)ccc2F)ncc1OC` [Compound 75], the IC50 under setting [1] worked out at 110 nM.

Take `COc1cnc(-c2cc(Cl)ccc2F)nc1Nc1ccncc1C(=O)NO` [Compound 238, 4-[2-(5-Chloro-2-fluoro-phenyl)-5-methoxy-pyrimidine-4-ylamino]-N-hydroxy-nicotinamide]: the IC50 under setting [2] worked out at 1080 nM.

For the molecule `COc1cnc(-c2cc(Cl)ccc2F)nc1Nc1ccncc1C(=O)NCCCNCCC1O[C@H](COC(C)=O)[C@@H](OC(C)=O)[C@H](OC(C)=O)[C@H]1OC(C)=O` (some centres unmarked) [Compound 97, Acetic acid 3,4,5-triacetoxy-6-{2-[3-({4-[2-(5-chloro-2-fluoro-phenyl)-5-methoxy-pyrimidin-4-ylamino]-pyridine-3-carbonyl}-amino)-propylamino]-ethyl}-tetrahydro-pyran-2-ylmethyl ester], under setting [1], the IC50 turned out to be 90 nM.

With `NC(=O)c1cnccc1Nc1nc(-c2cc(Cl)ccc2F)ncc1Cl` [Compound 91, 4-[5-Chloro-2-(5-chloro-2-fluoro-phenyl)-pyrimidin-4-ylamino]-nicotinamide], under setting [1], the IC50 came out at 200 nM.

For the molecule `COc1cnc(-c2cc(Cl)ccc2F)nc1Nc1ccncc1C(=O)NCCCNCC(F)(F)C(F)(F)F` [Compound 101, 4-[2-(5-Chloro-2-fluoro-phenyl)-5-methoxy-pyrimidin-4-ylamino]-N-[3-(2,2,3,3,3-pentafluoro-propylamino)-propyl]-nicotinamide], the IC50 under setting [1] worked out at 140 nM.

`O=C(NCCN1CCCC1)c1cnccc1Nc1nc(-c2cc(Cl)ccc2F)ncc1N1CCCC1` [Compound 26, 4-[2-(5-Chloro-2-fluoro-phenyl)-5-pyrrolidin-1-yl-pyrimidin-4-ylamino]-N-(2-pyrrolidin-1-yl-ethyl)-nicotinamide]: under setting [1], the IC50 was found to be 200 nM.

Take `COc1cnc(-c2cc(Cl)ccc2F)nc1Nc1ccncc1C(=O)NCCCNC(=O)NC1CCCCC1` [Compound 64, 4-[2-(5-Chloro-2-fluoro-phenyl)-5-methoxy-pyrimidin-4-ylamino]-N-[3-(3-cyclohexyl-ureido)-propyl]-nicotinamide]: under setting [1], the half-inhibitory concentration (IC50) was found to be 890 nM.

On to `COc1cnc(-c2cc(Cl)ccc2F)nc1Nc1ccncc1C(=O)NCCCN(C)C` [Compound 7, 4-[2-(5-Chloro-2-fluoro-phenyl)-5-methoxy-pyrimidin-4-ylamino]-N-(3-dimethylamino-propyl)-nicotinamide], for which the IC50 under setting [1] came out at 30 nM.

With `CC(C)c1cnc(-c2cc(Cl)ccc2F)nc1Nc1ccncc1C(=O)NCC(C)(C)O` [Compound 52, 4-[2-(5-Chloro-2-fluoro-phenyl)-5-isopropyl-pyrimidin-4-ylamino]-N-(2-hydroxy-2-methyl-propyl)-nicotinamide], the IC50 under setting [1] is 90 nM.

`CC(C)c1cnc(-c2cc(Cl)ccc2F)nc1Nc1ccncc1C(=O)N1CC[C@@H](F)C1` [Compound 210, {4-[2-(5-Chloro-2-fluoro-phenyl)-5-isopropyl-pyrimidin-4-ylamino]-pyridin-3-yl}-(3-fluoro-pyrrolidin-1-yl)-methanone]: the concentration for half-maximal inhibition (IC50) under setting [2] was determined as 121 nM.

As for `CC(C)c1cnc(-c2cc(Cl)ccc2F)nc1Nc1ccncc1C(=O)NCCCN1CC[C@@H](O)C1` [Compound 113, 4-[2-(5-Chloro-2-fluoro-phenyl)-5-isopropyl-pyrimidin-4-ylamino]-N-[3-(3-hydroxy-pyrrolidin-1-yl)-propyl]-nicotinamide], the IC50 under setting [1] turned out to be 40 nM.

`CC(C)c1cnc(-c2cc(Cl)ccc2F)nc1Nc1ccncc1C(=O)NCCCN1CCCC1` [Compound 161, 4-[2-(5-Chloro-2-fluoro-phenyl)-5-isopropyl-pyrimidin-4-ylamino]-N-(3-pyrrolidin-1-yl-propyl)-nicotinamide]: the IC50 under setting [2] was found to be 4 nM.

Regarding `CC(C)(O)CNC(=O)c1cnccc1Nc1nc(-c2cc(Cl)ccc2F)ncc1C1CC1` [Compound 165], the IC50 under setting [2] is 27 nM.

For `COc1cnc(-c2cc(Cl)ccc2F)nc1Nc1cc[n+]([O-])cc1C(=O)NC1CC1` [Compound 114, 4-[2-(5-Chloro-2-fluoro-phenyl)-5-methoxy-pyrimidin-4-ylamino]-N-cyclopropyl-1-oxy-nicotinamide], the IC50 under setting [1] amounted to 3080 nM.

With `CCCN(CCC)C(=O)C(=O)c1cnccc1Nc1nc(-c2cc(Cl)ccc2F)ncc1OC` [Compound 240, 2-{4-[2-(5-Chloro-2-fluoro-phenyl)-5-methoxy-pyrimidin-4-ylamino]-pyridin-3-yl}-2-oxo-N,N-dipropyl-acetamide], under setting [2], the IC50 was 3080 nM.

Take `COc1cnc(-c2cc(Cl)ccc2F)nc1Nc1ccncc1C(=O)NCCCNC(=O)CC1O[C@H](CO)[C@@H](O)[C@H](O)[C@H]1O` (some centres unmarked) [Compound 146]: under setting [1], the half-inhibitory concentration (IC50) is 102 nM.

As for `CCNC(=O)NCCNC(=O)c1cnccc1Nc1nc(-c2cc(Cl)ccc2F)ncc1OC` [Compound 69, 4-[2-(5-Chloro-2-fluoro-phenyl)-5-methoxy-pyrimidin-4-ylamino]-N-[2-(3-ethyl-ureido)-ethyl]-nicotinamide], under setting [1], the IC50 was 150 nM.

For `NC(=O)c1cnccc1Nc1nc(-c2cc(Cl)ccc2F)ncc1I` [Compound 78, 4-[2-(5-Chloro-2-fluoro-phenyl)-5-iodo-pyrimidin-4-ylamino]-nicotinamide], the concentration for half-maximal inhibition (IC50) under setting [1] was determined as 10 nM.
